Assay results as given in ChEMBL document CHEMBL4007384, “Synthesis and optimization of furano[3,2-d]pyrimidines as selective spleen tyrosine kinase (Syk) inhibitors” (Bioorg Med Chem Lett, 2016).

Assays:
[1] = molecular target: Fibroblast growth factor receptor 1 (Homo sapiens, UniProt P11362); experiment: Inhibition of FGFR1 (unknown origin) after 60 mins by TR-FRET assay
[2] = molecular target: Ribosomal protein S6 kinase alpha-3 (Homo sapiens, UniProt P51812); experiment: Inhibition of RSK2 (unknown origin) after 60 mins by TR-FRET assay
[3] = Unbound clearance in rat microsomes; assay type: ADME, Microsome
[4] = molecular target: Insulin-like growth factor 1 receptor (Homo sapiens, UniProt P08069); experiment: Inhibition of IGF1R (unknown origin) after 60 mins by TR-FRET assay
[5] = molecular target: ALK tyrosine kinase receptor (Homo sapiens, UniProt Q9UM73); experiment: Inhibition of ALK (unknown origin) after 60 mins by TR-FRET assay
[6] = molecular target: Mitogen-activated protein kinase 9 (Homo sapiens, UniProt P45984); experiment: Inhibition of JNK2 (unknown origin) after 60 mins by TR-FRET assay
[7] = molecular target: Tyrosine-protein kinase Lck (Homo sapiens, UniProt P06239); experiment: Inhibition of Lck (unknown origin) after 60 mins by TR-FRET assay
[8] = molecular target: Death-associated protein kinase 3 (Homo sapiens, UniProt O43293); experiment: Inhibition of ZIPK (unknown origin) after 60 mins by TR-FRET assay
[9] = molecular target: T1, Aurora kinase A (Homo sapiens, UniProt O14965); experiment: Inhibition of AURKA (unknown origin) after 60 mins by TR-FRET assay
T1 sequence (O14965 whole entry): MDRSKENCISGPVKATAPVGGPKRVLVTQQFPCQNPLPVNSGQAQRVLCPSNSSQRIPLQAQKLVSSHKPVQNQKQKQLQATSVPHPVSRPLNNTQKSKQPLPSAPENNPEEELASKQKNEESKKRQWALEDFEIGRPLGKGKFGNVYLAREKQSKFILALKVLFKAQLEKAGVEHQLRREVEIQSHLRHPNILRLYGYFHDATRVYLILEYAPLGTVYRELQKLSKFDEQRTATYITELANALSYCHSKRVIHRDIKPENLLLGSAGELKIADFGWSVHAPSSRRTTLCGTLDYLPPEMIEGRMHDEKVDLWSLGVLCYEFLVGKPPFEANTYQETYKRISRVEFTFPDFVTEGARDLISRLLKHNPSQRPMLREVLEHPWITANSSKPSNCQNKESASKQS

[10] = molecular target: Activated CDC42 kinase 1 (Homo sapiens, UniProt Q07912); experiment: Inhibition of TNK2 (unknown origin) after 60 mins by TR-FRET assay
[11] = molecular target: T2, Tyrosine-protein kinase receptor TYRO3 (Homo sapiens, UniProt Q06418); experiment: Inhibition of TYRO3 (unknown origin) after 60 mins by TR-FRET assay
T2 sequence (Q06418 whole entry): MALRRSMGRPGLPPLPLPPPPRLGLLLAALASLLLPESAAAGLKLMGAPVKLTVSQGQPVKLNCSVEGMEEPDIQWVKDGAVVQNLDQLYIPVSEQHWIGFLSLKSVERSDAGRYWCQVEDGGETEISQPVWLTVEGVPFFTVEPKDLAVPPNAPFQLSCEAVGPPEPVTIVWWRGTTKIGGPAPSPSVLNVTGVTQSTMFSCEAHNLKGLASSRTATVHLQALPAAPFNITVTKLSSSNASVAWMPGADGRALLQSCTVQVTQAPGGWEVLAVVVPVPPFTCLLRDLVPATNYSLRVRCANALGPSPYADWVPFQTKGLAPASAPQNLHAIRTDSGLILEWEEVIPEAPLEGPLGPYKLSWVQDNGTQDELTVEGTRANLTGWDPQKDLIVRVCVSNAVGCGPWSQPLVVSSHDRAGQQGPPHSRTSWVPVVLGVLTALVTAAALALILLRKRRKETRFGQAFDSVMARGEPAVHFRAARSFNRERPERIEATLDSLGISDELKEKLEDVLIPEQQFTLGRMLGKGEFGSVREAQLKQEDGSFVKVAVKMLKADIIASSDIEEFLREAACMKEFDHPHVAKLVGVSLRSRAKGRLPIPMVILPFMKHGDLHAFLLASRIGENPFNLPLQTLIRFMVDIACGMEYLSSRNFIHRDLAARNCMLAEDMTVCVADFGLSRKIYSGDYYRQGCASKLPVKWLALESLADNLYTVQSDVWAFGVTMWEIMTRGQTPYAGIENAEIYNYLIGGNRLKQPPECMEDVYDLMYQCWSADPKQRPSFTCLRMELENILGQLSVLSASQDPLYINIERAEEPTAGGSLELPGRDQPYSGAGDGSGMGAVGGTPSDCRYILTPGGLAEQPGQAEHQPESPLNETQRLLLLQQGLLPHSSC

[12] = molecular target: Wee1-like protein kinase (Homo sapiens, UniProt P30291); experiment: Inhibition of Wee1 (unknown origin) after 60 mins by TR-FRET assay

Chain of Death-associated protein kinase 3 (O43293 whole entry): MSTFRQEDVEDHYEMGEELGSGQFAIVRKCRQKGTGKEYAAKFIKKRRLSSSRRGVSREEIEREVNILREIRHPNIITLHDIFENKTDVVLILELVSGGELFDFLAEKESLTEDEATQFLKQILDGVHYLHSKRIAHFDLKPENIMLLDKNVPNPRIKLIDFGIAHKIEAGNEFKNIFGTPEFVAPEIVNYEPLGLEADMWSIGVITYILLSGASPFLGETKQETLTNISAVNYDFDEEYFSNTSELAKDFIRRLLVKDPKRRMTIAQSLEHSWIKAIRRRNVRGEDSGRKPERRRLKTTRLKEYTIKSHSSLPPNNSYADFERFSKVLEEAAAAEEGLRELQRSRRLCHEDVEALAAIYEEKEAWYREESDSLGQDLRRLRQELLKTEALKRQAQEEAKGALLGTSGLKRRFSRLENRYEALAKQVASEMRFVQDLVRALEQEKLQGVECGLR
Chain of Insulin-like growth factor 1 receptor (P08069 31-736 limits assumed): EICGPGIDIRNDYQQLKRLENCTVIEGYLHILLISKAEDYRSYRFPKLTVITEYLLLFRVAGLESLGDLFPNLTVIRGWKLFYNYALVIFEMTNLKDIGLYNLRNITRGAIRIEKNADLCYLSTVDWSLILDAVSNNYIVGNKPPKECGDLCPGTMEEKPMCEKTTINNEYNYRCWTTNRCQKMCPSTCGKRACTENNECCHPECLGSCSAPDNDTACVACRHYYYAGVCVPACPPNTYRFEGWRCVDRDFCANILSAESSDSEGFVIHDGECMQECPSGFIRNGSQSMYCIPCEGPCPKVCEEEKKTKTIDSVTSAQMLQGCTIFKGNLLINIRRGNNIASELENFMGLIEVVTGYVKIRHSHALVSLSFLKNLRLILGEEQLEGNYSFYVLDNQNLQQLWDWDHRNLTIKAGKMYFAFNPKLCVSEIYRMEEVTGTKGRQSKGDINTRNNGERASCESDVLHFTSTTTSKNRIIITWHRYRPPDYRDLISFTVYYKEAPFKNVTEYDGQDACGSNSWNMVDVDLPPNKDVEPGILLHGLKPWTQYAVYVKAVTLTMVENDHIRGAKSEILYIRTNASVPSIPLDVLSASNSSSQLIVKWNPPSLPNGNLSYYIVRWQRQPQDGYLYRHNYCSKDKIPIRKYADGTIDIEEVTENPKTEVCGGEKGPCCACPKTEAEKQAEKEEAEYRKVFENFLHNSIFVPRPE
Chain of Insulin-like growth factor 1 receptor (P08069 741-1367 limits assumed): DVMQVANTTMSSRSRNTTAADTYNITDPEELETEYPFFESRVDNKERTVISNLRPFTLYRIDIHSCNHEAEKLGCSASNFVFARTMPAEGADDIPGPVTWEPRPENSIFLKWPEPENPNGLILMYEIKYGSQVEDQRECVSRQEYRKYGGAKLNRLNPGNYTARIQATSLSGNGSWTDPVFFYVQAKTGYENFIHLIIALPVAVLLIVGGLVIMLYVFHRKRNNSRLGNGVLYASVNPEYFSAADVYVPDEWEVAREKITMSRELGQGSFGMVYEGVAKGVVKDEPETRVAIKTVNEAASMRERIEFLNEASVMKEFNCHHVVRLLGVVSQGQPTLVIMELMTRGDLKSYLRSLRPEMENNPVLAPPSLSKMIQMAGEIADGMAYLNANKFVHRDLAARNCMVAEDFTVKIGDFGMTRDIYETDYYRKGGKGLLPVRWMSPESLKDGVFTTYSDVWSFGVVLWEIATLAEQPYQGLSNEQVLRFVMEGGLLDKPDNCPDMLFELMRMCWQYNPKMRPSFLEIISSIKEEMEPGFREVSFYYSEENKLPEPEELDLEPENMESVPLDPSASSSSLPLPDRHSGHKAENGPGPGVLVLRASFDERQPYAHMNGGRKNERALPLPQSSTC
Chain of Activated CDC42 kinase 1 (Q07912 whole entry): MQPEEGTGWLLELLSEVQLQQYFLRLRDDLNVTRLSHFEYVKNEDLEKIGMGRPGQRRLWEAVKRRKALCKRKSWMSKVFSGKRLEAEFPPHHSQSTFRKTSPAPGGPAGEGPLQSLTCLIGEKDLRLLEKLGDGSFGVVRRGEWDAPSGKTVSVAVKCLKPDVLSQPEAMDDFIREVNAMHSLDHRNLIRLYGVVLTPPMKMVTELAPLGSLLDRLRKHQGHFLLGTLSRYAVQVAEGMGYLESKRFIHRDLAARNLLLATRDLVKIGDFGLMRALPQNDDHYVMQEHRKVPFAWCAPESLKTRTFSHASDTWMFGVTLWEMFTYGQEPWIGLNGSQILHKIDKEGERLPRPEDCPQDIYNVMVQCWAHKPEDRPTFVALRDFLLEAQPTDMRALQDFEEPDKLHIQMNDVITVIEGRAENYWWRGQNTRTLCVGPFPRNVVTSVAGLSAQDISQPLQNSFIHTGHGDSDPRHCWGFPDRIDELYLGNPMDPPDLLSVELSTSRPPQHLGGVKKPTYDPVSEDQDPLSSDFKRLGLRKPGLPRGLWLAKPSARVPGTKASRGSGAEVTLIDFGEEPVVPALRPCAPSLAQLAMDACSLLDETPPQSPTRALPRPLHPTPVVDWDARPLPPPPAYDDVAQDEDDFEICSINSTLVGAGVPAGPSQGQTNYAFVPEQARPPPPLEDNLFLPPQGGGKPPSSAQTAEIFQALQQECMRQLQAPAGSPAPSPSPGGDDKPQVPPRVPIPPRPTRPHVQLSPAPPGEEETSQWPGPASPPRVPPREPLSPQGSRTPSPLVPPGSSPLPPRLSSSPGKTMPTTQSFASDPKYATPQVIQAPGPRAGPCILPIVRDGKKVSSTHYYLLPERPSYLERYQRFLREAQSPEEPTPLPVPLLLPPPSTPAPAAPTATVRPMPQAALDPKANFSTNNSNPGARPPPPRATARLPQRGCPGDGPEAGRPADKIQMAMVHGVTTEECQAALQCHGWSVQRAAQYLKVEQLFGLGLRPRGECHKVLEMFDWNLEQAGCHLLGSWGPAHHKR
Chain of Fibroblast growth factor receptor 1 (P11362 whole entry): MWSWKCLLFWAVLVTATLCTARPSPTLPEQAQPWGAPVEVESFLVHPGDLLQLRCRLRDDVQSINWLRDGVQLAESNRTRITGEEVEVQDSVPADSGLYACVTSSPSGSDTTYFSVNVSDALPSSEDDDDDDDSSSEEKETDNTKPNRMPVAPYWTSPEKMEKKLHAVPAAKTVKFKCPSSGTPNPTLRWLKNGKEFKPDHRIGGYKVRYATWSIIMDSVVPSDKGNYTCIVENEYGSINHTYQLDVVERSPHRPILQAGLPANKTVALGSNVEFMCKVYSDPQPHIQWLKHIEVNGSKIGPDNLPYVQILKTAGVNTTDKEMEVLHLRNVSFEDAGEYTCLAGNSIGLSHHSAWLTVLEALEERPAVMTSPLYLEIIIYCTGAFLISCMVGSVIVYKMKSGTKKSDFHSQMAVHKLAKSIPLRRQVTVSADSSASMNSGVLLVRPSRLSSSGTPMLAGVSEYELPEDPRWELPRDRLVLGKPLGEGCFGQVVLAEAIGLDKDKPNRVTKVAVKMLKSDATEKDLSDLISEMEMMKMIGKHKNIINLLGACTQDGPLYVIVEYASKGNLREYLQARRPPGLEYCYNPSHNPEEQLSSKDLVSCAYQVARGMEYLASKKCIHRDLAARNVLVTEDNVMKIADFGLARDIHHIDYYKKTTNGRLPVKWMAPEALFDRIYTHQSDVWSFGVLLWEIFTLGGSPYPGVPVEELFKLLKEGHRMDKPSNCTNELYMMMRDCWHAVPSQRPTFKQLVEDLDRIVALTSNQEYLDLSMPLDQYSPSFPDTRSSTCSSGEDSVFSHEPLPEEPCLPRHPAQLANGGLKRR
Chain of Ribosomal protein S6 kinase alpha-3 (P51812 whole entry): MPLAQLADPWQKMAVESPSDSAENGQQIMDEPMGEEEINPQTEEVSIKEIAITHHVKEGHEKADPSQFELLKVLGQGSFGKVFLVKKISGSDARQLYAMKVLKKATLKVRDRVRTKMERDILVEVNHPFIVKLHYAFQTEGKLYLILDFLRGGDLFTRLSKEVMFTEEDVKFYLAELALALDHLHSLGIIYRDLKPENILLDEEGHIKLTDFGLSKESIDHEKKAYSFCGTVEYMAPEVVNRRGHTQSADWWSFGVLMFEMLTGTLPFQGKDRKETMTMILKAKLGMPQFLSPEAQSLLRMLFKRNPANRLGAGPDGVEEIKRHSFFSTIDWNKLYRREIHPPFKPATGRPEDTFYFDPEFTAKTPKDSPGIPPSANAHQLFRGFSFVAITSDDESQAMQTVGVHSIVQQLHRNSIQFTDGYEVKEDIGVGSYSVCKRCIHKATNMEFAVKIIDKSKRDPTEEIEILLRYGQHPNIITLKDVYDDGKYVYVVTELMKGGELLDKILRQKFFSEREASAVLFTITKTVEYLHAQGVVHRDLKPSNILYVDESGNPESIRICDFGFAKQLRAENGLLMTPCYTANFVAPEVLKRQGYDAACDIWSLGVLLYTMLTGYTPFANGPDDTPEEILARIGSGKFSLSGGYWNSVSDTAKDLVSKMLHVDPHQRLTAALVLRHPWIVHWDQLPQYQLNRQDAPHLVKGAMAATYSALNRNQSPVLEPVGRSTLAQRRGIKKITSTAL
Chain of Tyrosine-protein kinase Lck (P06239 whole entry): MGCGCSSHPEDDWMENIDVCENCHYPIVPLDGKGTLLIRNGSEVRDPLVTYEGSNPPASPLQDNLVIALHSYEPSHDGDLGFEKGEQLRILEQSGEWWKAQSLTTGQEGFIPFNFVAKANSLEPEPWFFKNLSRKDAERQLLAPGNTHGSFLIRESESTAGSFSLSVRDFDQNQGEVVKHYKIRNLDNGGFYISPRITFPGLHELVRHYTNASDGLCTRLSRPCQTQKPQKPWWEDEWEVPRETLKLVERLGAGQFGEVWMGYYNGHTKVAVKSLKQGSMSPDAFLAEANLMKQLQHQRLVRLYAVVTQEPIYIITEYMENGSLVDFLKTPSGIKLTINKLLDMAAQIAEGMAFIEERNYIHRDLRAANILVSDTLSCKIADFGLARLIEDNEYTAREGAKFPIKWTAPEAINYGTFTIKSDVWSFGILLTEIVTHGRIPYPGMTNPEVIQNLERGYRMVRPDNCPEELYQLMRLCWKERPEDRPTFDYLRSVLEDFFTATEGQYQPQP

SMILES | IC50 [1] [µM] | IC50 [2] [µM] | CL free [3] [mL/min/kg] | IC50 [4] [µM] | IC50 [5] [µM] | IC50 [6] [µM] | IC50 [7] [µM] | IC50 [8] [µM] | IC50 [9] [µM] | IC50 [10] [µM] | IC50 [11] [µM] | IC50 [12] [µM]
FC(F)(F)CNc1nc(Nc2ccc(N3CCOCC3)c(Cl)c2)nc2ccoc12 | > 10 | > 10 | 1600 | > 10 | > 10 | > 10 | 3.7 | > 10 | > 10 | 4.02 | > 10 | > 10
FC(F)(F)CNc1nc(Nc2ccc3cn[nH]c3c2)nc2ccoc12 | > 10 | 9.81 | 255 | > 10 | 7.63 | > 10 | 7.79 |  | > 10 | 3.46 | 3.21 | > 10
Cc1n[nH]c2cc(Nc3nc(NC4CC4)c4occc4n3)ccc12 | > 10 |  |  | > 10 |  | > 10 |  | 4.98 | > 10 | 1.32 | 4.14 | > 10
CC1(C)OCC(=O)Nc2cc(Nc3nc(NCC(F)(F)F)c4occc4n3)ccc21 | > 10 | > 10 | < 81.7 | 6.02 | > 10 | > 10 | 0.699 | > 10 | 4.05 | 1.33 | > 10 | 9.88
